Measured values from patent US5300491A, “Treatment of protozoal infection” (priority 1992, dated 1994).
Where two headings read alike, the source gives them in different places. Bridge positions count the residues as written; N and C are the ends. Square brackets hold non-standard residues; d marks the D form. Peptide text beside a SMILES is read from it. * marks the point of attachment. Ileψ(thiazoline)Cys = CC[C@H](C)[C@H](N)C1=N[C@H](C(=O)*)CS1; dOrn = NCCC[C@@H](N)C(=O)O

Tested on: Entamoeba histolytica
Assay type: cell-based
Excerpt: E. histolytica isolates representing three distinct zymodemes (I, II or XIV) were derived from a range of geographical locations. The patients from whom the isolates were obtained were either pathogenic (i.e. presented dysentery), or non-pathogenic (i.e., presented a non-dysenteric stage of infection characterized by passing of cysts or trophozoites). The following table identifies the E. histolytica isolates in accordance with the above criteria:
Each isolate was a xenic culture, i.e., it contained, in addition to the E. histolytica amoeba, the normally occurring patient faecal microflora. The cultures were maintained according to the method of Robinson, Trans. Roy. Soc. Trop. Med. Hyg. 62, 285-94, (1968). Bacitracin (70 I.U./mg) and its zinc salt (65 I.U./mg) were obtained from Apothekernes Laboratorium A.S (Oslo, Norway). Following microtitre-assay standardization and pilot testing of the drugs (results not presented), the following assay procedure was established. Bacitracin was screened over the range of 20.0-0.625 mg/ml by doubling dilution. 30 mg/ml bacitracin was also examined. […] The remaining wells were run as controls. An initial stock solution of 75 mg/ml bacitracin was prepared in starch-free Robinson medium (SFRM) . Subsequent to loading the first set of wells, the stock was diluted with SFRM to 50 mg/ml, which was used to prepare the remaining concentrations. […] 100 μl volumes of both drugs were then double-diluted in SFRM to provide 2.5X concentrates of the required final concentrations in the microtitre plates. 50 μl of a 25 mg% starch (BDH) solution (in SFRM) was then added to each well. 16-18 hours before the end of the required 48-hour culture period, the amoeba isolates were passaged to fresh tubes containing starch-free Robinson medium. At the end of the culture period, the amoebae were harvested in a small volume of medium and resuspended in at least 20 volumes SFRM. The suspensions were centrifuged at 1000 rpm for 5 minutes prior to re-suspension in fresh medium and counted in a modified Neubauer chamber. Amoebae were centrifuged as before and the pellet resuspended to a concentration of 2.5×10^4 /ml SFRM. 100 μl aliquots were then pipetted into respective wells to provide duplicate cultures of each isolate for each concentration assayed. The plates were then placed in an anaerobic chamber (HP11, Oxoid) at 37° C. for 24 hours. While this procedure provided sufficient starch for the amoebae, the concentration was such that at 24 hours the plates were easily read and quantitified by direct observation using an inverted microscope. Viability was assessed by the addition of Trypan blue to a final concentration of 0.1%.
Readings from each of the studies were collected and stored until all three experiments were completed in order to reduce any bias in subsequent readings. Minimun inhibitory and minimum lethal concentrations were given in mg/ml. […]

[1] = xenic isolate 70k, Experiment 1
[2] = xenic isolate 70k, Experiment 2
[3] = xenic isolate 70k, Experiment 3
[4] = xenic isolate 116k, Experiment 1
[5] = xenic isolate 116k, Experiment 2
[6] = xenic isolate 116k, Experiment 3
[7] = xenic isolate 418, Experiment 1
[8] = xenic isolate 418, Experiment 2
[9] = xenic isolate 418, Experiment 3
[10] = xenic isolate 1246, Experiment 1
[11] = xenic isolate 1246, Experiment 2
[12] = xenic isolate 1246, Experiment 3
[13] = xenic isolate AiDO, Experiment 1
[14] = xenic isolate AiDO, Experiment 2
[15] = xenic isolate AiDO, Experiment 3
[16] = xenic isolate BiLO, Experiment 1
[17] = xenic isolate BiLO, Experiment 3

## CC[C@H](C)[C@H](N)C1=N[C@H](C(=O)N[C@@H](CC(C)C)C(=O)N[C@H](CCC(=O)O)C(=O)N[C@H](C(=O)N[C@H]2CCCCNC(=O)[C@H](CC(N)=O)NC(=O)[C@@H](CC(=O)O)NC(=O)[C@H](Cc3cnc[nH]3)NC(=O)[C@@H](Cc3ccccc3)NC(=O)[C@H]([C@@H](C)CC)NC(=O)[C@@H](CCCN)NC2=O)[C@@H](C)CC)CS1 [Bacitracin, reference compound] ({Ileψ(thiazoline)Cys}-L[dE]IK[dOrn]I[dF]H[dD]N; lactam 4-C)
Span over all xenic isolates and studies
  MICs: 0.63 to 10.0 mg/mL
Xenic Isolate 1, single study over a narrower range of drug concentration (Table 4)
  Minimum Lethal Concentration (MLC): 21 mg/mL
Xenic Isolate C1, single study over a narrower range of drug concentration (Table 4)
  Minimum Lethal Concentration (MLC): 24 mg/mL
Xenic isolate 1, Experiment 1
  Minimum Inhibitory Concentration (MIC): 5.0 mg/mL
  Minimum Lethal Concentration (MLC): 30.0 mg/mL
Xenic isolate 1, Experiment 2
  Minimum Inhibitory Concentration (MIC): 10.0 mg/mL
  Minimum Lethal Concentration (MLC): 30.0 mg/mL
Xenic isolate 1, Experiment 3
  Minimum Inhibitory Concentration (MIC): 5.0 mg/mL
  Minimum Lethal Concentration (MLC): 30.0 mg/mL
[1]
  Minimum Inhibitory Concentration (MIC): 5.0 mg/mL
  Minimum Lethal Concentration (MLC): 30.0 mg/mL
[2]
  Minimum Inhibitory Concentration (MIC): 5.0 mg/mL
  Minimum Lethal Concentration (MLC): 20.0 mg/mL
[3]
  Minimum Inhibitory Concentration (MIC): 10.0 mg/mL
  Minimum Lethal Concentration (MLC): 30.0 mg/mL
[4]
  Minimum Inhibitory Concentration (MIC): 10.0 mg/mL
  Minimum Lethal Concentration (MLC): 30.0 mg/mL
[5]
  Minimum Inhibitory Concentration (MIC): 1.25 mg/mL
  Minimum Lethal Concentration (MLC): 30.0 mg/mL
[6]
  Minimum Inhibitory Concentration (MIC): 1.25 mg/mL
  Minimum Lethal Concentration (MLC): 30.0 mg/mL
[7]
  Minimum Inhibitory Concentration (MIC): 5.0 mg/mL
  Minimum Lethal Concentration (MLC): 30.0 mg/mL
[8]
  Minimum Inhibitory Concentration (MIC): 0.63 mg/mL
  Minimum Lethal Concentration (MLC): 20.0 mg/mL
[9]
  Minimum Inhibitory Concentration (MIC): 0.63 mg/mL
  Minimum Lethal Concentration (MLC): 20.0 mg/mL
[10]
  Minimum Inhibitory Concentration (MIC): 2.5 mg/mL
  Minimum Lethal Concentration (MLC): 30.0 mg/mL
[11]
  Minimum Inhibitory Concentration (MIC): 10.0 mg/mL
  Minimum Lethal Concentration (MLC): 20.0 mg/mL
[12]
  Minimum Inhibitory Concentration (MIC): 0.63 mg/mL
  Minimum Lethal Concentration (MLC): 20.0 mg/mL
[13]
  Minimum Inhibitory Concentration (MIC): 10.0 mg/mL
  Minimum Lethal Concentration (MLC): 30.0 mg/mL
[14]
  Minimum Inhibitory Concentration (MIC): 2.5 mg/mL
  Minimum Lethal Concentration (MLC): 30.0 mg/mL
[15]
  Minimum Inhibitory Concentration (MIC): 2.5 mg/mL
  Minimum Lethal Concentration (MLC): 30.0 mg/mL
[16]
  Minimum Inhibitory Concentration (MIC): 5.0 mg/mL
  Minimum Lethal Concentration (MLC): 30.0 mg/mL
[17]
  Minimum Inhibitory Concentration (MIC): 1.25 mg/mL
  Minimum Lethal Concentration (MLC): 20.0 mg/mL
Xenic isolate C1, Experiment 1
  Minimum Inhibitory Concentration (MIC): 10.0 mg/mL
  Minimum Lethal Concentration (MLC): 30.0 mg/mL
Xenic isolate C1, Experiment 2
  Minimum Inhibitory Concentration (MIC): 5.0 mg/mL
  Minimum Lethal Concentration (MLC): 20.0 mg/mL
Xenic isolate C1, Experiment 3
  Minimum Inhibitory Concentration (MIC): 1.25 mg/mL
  Minimum Lethal Concentration (MLC): 20.0 mg/mL
Xenic isolate C2, Experiment 1
  Minimum Inhibitory Concentration (MIC): 2.5 mg/mL
  Minimum Lethal Concentration (MLC): 30.0 mg/mL
Xenic isolate C2, Experiment 2
  Minimum Inhibitory Concentration (MIC): 5.0 mg/mL
  Minimum Lethal Concentration (MLC): 20.0 mg/mL
Xenic isolate C2, Experiment 3
  Minimum Inhibitory Concentration (MIC): 2.5 mg/mL
  Minimum Lethal Concentration (MLC): 30.0 mg/mL
Xenic isolate DA, Experiment 1
  Minimum Inhibitory Concentration (MIC): 2.5 mg/mL
  Minimum Lethal Concentration (MLC): 30.0 mg/mL
Xenic isolate DA, Experiment 2
  Minimum Inhibitory Concentration (MIC): 5.0 mg/mL
